We go through 5 molecules from patent US20220380431A1, “GLYCOPEPTIDE ANALOGS OF SECRETIN FAMILY PEPTIDES” (ARIZONA BOARD OF REGENTS ON BEHALF OF THE UNIVERSITY OF …, priority 2017, published 2022).

Where a SMILES comes first, the peptide text is derived from it. [ ]: non-standard residue; d: D form. The star is where a group is joined. βGlc = OC[C@H]1O[C@@H](*)[C@H](O)[C@@H](O)[C@@H]1O; Nva = CCC[C@H](N)C(=O)O

Holding throughout (type): cell-based
Assay [1] deals with T1, VPAC1 (Homo sapiens, UniProt P32241).
T1 sequence (P32241 31-457): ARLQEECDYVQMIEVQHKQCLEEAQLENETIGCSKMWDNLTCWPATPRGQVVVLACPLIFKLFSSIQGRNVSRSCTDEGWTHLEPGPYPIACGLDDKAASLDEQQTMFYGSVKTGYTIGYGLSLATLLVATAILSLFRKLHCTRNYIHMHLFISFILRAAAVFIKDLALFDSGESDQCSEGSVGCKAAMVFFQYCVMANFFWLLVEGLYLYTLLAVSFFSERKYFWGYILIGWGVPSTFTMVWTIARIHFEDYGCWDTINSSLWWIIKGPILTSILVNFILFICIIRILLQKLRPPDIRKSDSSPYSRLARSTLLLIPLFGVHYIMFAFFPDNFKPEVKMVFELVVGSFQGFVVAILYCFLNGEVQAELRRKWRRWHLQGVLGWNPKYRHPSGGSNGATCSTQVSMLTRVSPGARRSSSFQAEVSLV
In words: Assay of peptides at PAC and VPAC receptors: VPAC1 (EC50/EMax).

Assay [2] concerns the target T2, PAC1 (Homo sapiens, UniProt P41586).
T2 sequence (P41586 21-468): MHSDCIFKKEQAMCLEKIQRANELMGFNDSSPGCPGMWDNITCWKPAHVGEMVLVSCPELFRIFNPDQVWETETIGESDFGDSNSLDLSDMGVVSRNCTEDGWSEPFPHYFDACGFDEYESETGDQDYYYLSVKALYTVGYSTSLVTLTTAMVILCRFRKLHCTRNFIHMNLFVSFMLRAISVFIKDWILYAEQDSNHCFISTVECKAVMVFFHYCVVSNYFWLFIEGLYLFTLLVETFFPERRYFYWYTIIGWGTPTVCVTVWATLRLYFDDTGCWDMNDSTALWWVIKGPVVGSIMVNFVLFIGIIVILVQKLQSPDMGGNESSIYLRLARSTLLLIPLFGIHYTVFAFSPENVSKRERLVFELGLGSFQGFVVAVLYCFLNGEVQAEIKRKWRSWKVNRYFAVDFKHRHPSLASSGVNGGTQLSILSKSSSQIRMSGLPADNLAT
In words: Assay of peptides at PAC and VPAC receptors: PAC1 (EC50/EMax).

The target of assay [3] is T3, VPAC2 (Homo sapiens, UniProt P41587).
T3 sequence (P41587 24-438): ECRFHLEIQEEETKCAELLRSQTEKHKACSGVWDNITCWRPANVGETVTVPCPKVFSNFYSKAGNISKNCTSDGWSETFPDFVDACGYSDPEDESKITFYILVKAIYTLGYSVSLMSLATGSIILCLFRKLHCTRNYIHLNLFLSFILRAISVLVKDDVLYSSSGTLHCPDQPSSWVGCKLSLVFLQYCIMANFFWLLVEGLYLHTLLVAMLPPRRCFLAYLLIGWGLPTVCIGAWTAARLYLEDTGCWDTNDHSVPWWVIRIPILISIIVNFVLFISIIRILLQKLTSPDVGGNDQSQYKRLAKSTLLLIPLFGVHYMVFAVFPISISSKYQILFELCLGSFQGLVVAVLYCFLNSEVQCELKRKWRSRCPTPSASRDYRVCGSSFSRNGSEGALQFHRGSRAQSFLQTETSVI
In words: Assay of peptides at PAC and VPAC receptors: VPAC2 (EC50/EMax).

In the case of `CCC[C@H](NC(=O)[C@H](CCC(N)=O)NC(=O)[C@H](CCCCN)NC(=O)[C@H](CCCNC(=N)N)NC(=O)[C@H](Cc1ccc(O)cc1)NC(=O)[C@H](CCCNC(=N)N)NC(=O)[C@H](CO)NC(=O)[C@H](Cc1ccc(O)cc1)NC(=O)[C@H](CO)NC(=O)[C@H](CC(=O)O)NC(=O)[C@H](C)NC(=O)[C@H](Cc1ccccc1)NC(=O)[C@@H](NC(=O)CNC(=O)[C@H](CC(=O)O)NC(=O)[C@@H](CO)NC(=O)[C@@H](N)Cc1c[nH]cn1)[C@@H](C)CC)C(=O)N[C@@H](C)C(=O)N[C@H](C(=O)N[C@@H](CCCCN)C(=O)N[C@@H](CCCCN)C(=O)N[C@@H](Cc1ccc(O)cc1)C(=O)N[C@@H](CC(C)C)C(=O)N[C@@H](C)C(=O)N[C@@H](C)C(=O)N[C@H](C(=O)N[C@@H](CO[C@@H]1O[C@H](CO)[C@@H](O)[C@H](O)[C@H]1O)C(N)=O)C(C)C)C(C)C` [CRA3004] (H-H[dS]DGIFADSYSRYRKQ[Nva]AVKKYLAAVS(βGlc)-NH2), in assay [1], the midpoint of the response, the EC50, lay at 1370 nM and the Emax (as a rule, the maximal effect, on the per cent scale that the assay sets) was found to be 85%.

As for `CCC[C@H](NC(=O)[C@H](CCC(N)=O)NC(=O)[C@H](CCCCN)NC(=O)[C@H](CCCNC(=N)N)NC(=O)[C@H](Cc1ccc(O)cc1)NC(=O)[C@H](CCCNC(=N)N)NC(=O)[C@H](CO)NC(=O)[C@H](Cc1ccc(O)cc1)NC(=O)[C@H](CO)NC(=O)[C@H](CC(=O)O)NC(=O)[C@@H](NC(=O)[C@H](Cc1ccccc1)NC(=O)[C@@H](NC(=O)CNC(=O)[C@H](CC(=O)O)NC(=O)[C@@H](CO)NC(=O)[C@@H](N)Cc1c[nH]cn1)[C@@H](C)CC)[C@@H](C)O)C(=O)N[C@@H](C)C(=O)N[C@H](C(=O)N[C@@H](CCCCN)C(=O)N[C@@H](CCCCN)C(=O)N[C@@H](Cc1ccc(O)cc1)C(=O)N[C@@H](CC(C)C)C(=O)N[C@@H](C)C(=O)N[C@@H](C)C(=O)N[C@@H](CC(C)C)C(=O)N[C@@H](CO[C@@H]1O[C@H](CO)[C@@H](O)[C@H](O)[C@H]1O)C(=O)N[C@@H](CC(C)C)C(N)=O)C(C)C` [CRA3002] (H-H[dS]DGIFTDSYSRYRKQ[Nva]AVKKYLAALS(βGlc)L-NH2), the Emax was -79% in assay [2], 93% in assay [1] and -95% in assay [3].

For the molecule “HSDGIFTDSYSRYRKQLAVd8KKYLAAVd8L-Ser(Lact) [2ls98Lact]”, in assay [2], the concentration giving a half-maximal response (EC50) (usually the concentration giving half of the maximal effect) came to 0.72 nM and the “PAC1 EMax” value is on record as 93%. In assay [1], the EC50 was found to be 0.45 nM and the “VPAC1 EMax” value was 101%. Moreover, in assay [3], the EC50 turned out to be 193 nM and the “VPAC2 EMax” value came out at 100%.

With `CCC[C@H](NC(=O)[C@H](CCC(N)=O)NC(=O)[C@H](CCCCN)NC(=O)[C@H](CCCNC(=N)N)NC(=O)[C@H](Cc1ccc(O)cc1)NC(=O)[C@H](CCCNC(=N)N)NC(=O)[C@H](CO)NC(=O)[C@H](Cc1ccc(O)cc1)NC(=O)[C@H](CO)NC(=O)[C@H](CC(=O)O)NC(=O)[C@H](C)NC(=O)[C@H](Cc1ccccc1)NC(=O)[C@@H](NC(=O)CNC(=O)[C@H](CC(=O)O)NC(=O)[C@@H](CO)NC(=O)[C@@H](N)Cc1c[nH]cn1)[C@@H](C)CC)C(=O)N[C@@H](C)C(=O)N[C@H](C(=O)N[C@@H](CCCCN)C(=O)N[C@@H](CCCCN)C(=O)N[C@@H](Cc1ccc(O)cc1)C(=O)N[C@@H](CC(C)C)C(=O)N[C@@H](C)C(=O)N[C@@H](C)C(=O)N[C@H](C(=O)N[C@@H](CO[C@@H]1O[C@H](CO)[C@@H](O)[C@H](O)[C@H]1O)C(=O)N[C@@H](CC(C)C)C(N)=O)C(C)C)C(C)C` [CRA3005] (H-H[dS]DGIFADSYSRYRKQ[Nva]AVKKYLAAVS(βGlc)L-NH2), the Emax in assay [1] is 78%.

As to “HSDGIFTDSYSRYRKQLAVKKYLAAVd8L-Ser(Cell) [2ls98Cell]”, in assay [2], the EC50 came out at 0.84 nM and the “PAC1 EMax” value stood at 92%. Also, in assay [1], the midpoint of the response, the EC50, lay at 0.52 nM and the “VPAC1 EMax” value came out at 93%. In assay [3], a half-maximal effect (EC50) was put at 55.6 nM and the “VPAC2 EMax” value is 91%.
